Test results taken from ChEMBL document CHEMBL4602704, “Discovery and Optimization of Glucose Uptake Inhibitors” (J Med Chem, 2020).
In brackets after ≈: the same amount, converted by molar mass.

Columns and labels:
[1] = in vitro; details: human, Caco-2
[2] = in vivo; details: CD-1, mouse, brain, po, 100 mg/kg
[3] = in vitro; details: human, Caco-2; remark: listed apart in the source
[4] = Apparent permeability in human Caco2 cells; assay type: ADME, cell-based; details: Caco-2
[5] = physchem; details: phosphate buffered saline, pH 4.5
[6] = physchem; details: phosphate buffered saline, pH 2
[7] = physchem; details: phosphate buffered saline, pH 6.8
[8] = in vitro; details: mouse, plasma
[9] = in vitro; details: mouse, liver microsomes
[10] = in vivo; details: mouse, iv, 10 mg/kg
[11] = in vivo; details: mouse, po, 30 mg/kg
[12] = in vitro; details: human, liver microsomes
[13] = in vivo; details: rat, po, 30 mg/kg
[14] = in vivo; details: rat, iv, 10 mg/kg
[15] = in vivo; details: rat
[16] = in vitro; details: rat, liver microsomes
[17] = in vivo; details: mouse
[18] = in vitro; details: dog, liver microsomes
[19] = in vivo; details: rat, po, 30 mg/kg; remark: listed apart in the source
[20] = in vivo; details: dog, po, 10 mg/kg
[21] = in vivo; details: mouse, iv, 10 mg/kg; remark: listed apart in the source
[22] = in vivo; details: dog, po, 10 mg/kg; remark: listed apart in the source
[23] = in vivo; details: mouse, po, 30 mg/kg; remark: listed apart in the source
[24] = in vivo; details: mouse, brain and plasma, po, 30 mg/kg
[25] = in vivo; details: mouse, po, 30 mg/kg; remark: listed apart in the source
[26] = in vivo; details: rat, po, 30 mg/kg; remark: listed apart in the source
[27] = in vivo; details: rat, iv, 10 mg/kg; remark: listed apart in the source

CC(C)(C)NC(=O)COc1cccc(-c2nc3c(c(Nc4ccc(-c5cn[nH]c5)cc4)n2)CN(C2CCC2)CC3)c1
Papp B→A at 5 µM [1]: 6.09 ×10⁻⁶ cm/s
Kp at 1 h [2]: 0.1
Papp A→B at 5 µM [3]: 4.58 ×10⁻⁶ cm/s

CCOc1ccc2nc(-c3cccc(OCC(=O)NC(C)C)c3)nc(Nc3ccc(-c4cn[nH]c4)cc3)c2c1
Papp [4]: 2 ×10⁻⁶ cm/s
solubility [5]: 0.01 µM (≈ 0.00523 µg/mL)
solubility [6]: 3.36 µM (≈ 1.76 µg/mL)
solubility [7]: 0.03 µM (≈ 0.0157 µg/mL)

CC1(NC(=O)COc2cccc(-c3nc4c(c(Nc5ccc(-c6cn[nH]c6)cc5)n3)CN(C3CCC3)CC4)c2)CC1
remaining at 18 h [8]: > 95%
half-life at 2 µM [9]: 70 min
clearance [10]: 40 mL/min/kg
Cmax [11]: 2520 ng/mL
half-life [12]: 116 min
Cmax [13]: 1680 ng/mL
Vd [14]: 4.51 L/kg
half-life [15]: 155 min
half-life at 2 µM [16]: 63 min
Papp B→A at 5 µM [1]: 4.33 ×10⁻⁶ cm/s
half-life [17]: 47.1 min
half-life [18]: 58 min
Kp at 1 h [2]: 0.05
solubility [5]: 256 µM (≈ 141 µg/mL)
AUC [19]: 6810 ng·h/mL
bioavailability [20]: 29%
Vd [21]: 1.7 L/kg
bioavailability [22]: 19%
bioavailability [23]: 45.4%
Kp at 2 h [24]: 0.05
Papp A→B at 5 µM [3]: 11.2 ×10⁻⁶ cm/s
AUC [25]: 5890 ng·h/mL
bioavailability [26]: 49.4%
solubility [6]: 291 µM (≈ 160 µg/mL)
solubility [7]: 1.4 µM (≈ 0.77 µg/mL)
clearance [27]: 37 mL/min/kg
